The test system of data set [1] is sub-genomic HCV NS3-NS5B replicon genotype 1b C316N (Huh-7 cells). The experiment in a line: Replicon luciferase cell based assay, genotype 1b C316N. The note with it: read-out: EC50 1b 316N. The method, then:
(§1) 150 μL of a 1 mM stock solution in DMSO of each test compound was transferred into in the first column of a 96 well, V-bottom microplate, to give 200 times the top concentration of the required dilution series. Aliquots of 50 μL were added to each well of the remaining rows containing 100 μL of DMSO giving a 1:3 dilution series over ten points. Columns 11 and 12 contained DMSO only for the positive and negative control, respectively. 10 μL of each well were transferred into 90 μL of DMEM medium (Invitrogen #41965-039) supplemented with 5% v/v foetal calf serum, 1% v/v non-essential amino acids solution, 100 units/ml penicillin, 100 μg/ml streptomycin and 2 mM L-glutamine to give 20 times the top concentration of the required dilution series.
(§2) Suspensions were prepared from cultures of Huh-7 cells stably transfected with sub-genomic HCV NS3-NS5B replicons of either genotype 1b (the ET subline described by Pietschmann, T., Lohmann, V., Kaul, A., Krieger, N., Rinck, G., Rutter, G., Strand, D. & Bartenschlager, R., Journal of Virology, 2002, 76, 4008-4021), genotype 1a (subline 1.19 constructed in-house from H77 SG-Neo containing adaptive mutations P1496L and S2204I as described by Blight, K. J., McKeating, J. A., Marcotrigiano, J., and Rice, C. M. Journal of Virology, 2003, 77, 3180-3190), genotype 1b C316N (constructed in-house by site directed mutagenesis of the NS5B gene of the ET subline), or genotype 1a C316Y (constructed in-house by site directed mutagenesis of the NS5B gene of H77 SG-Neo containing adaptive mutations P1496L and S2204I as described by Blight, K. J., McKeating, J. A., Marcotrigiano, J., and Rice, C. M. Journal of Virology, 2003, 77, 3180-3190) linked to a firefly luciferase reporter gene. Monolayers nearing confluency were stripped from growth flasks with versene-trypsin solution and the cells re-suspended in assay medium comprising DMEM. 95 μL of suspension containing either 15,000 cells (genotype 1b luciferase replicon) or 20,000 cells (genotype 1a luciferase replicon) were added to all wells of a 96 well plate (Perkin Elmer, #6005686), except medium controls in column 12 of the assay plate. The cell suspension was dosed with 5 μL of compound solution and the plate was incubated for 48 hours at 37° C. in a 5% CO2 atmosphere.
(§3) For toxicity the cells in one plate were treated with Cell Titer Glo (Promega, #G7573). A solution of Cell Titer Glo was prepared according to the manufacturer's instructions, and 100 μL added to each well. The plate was then read for luminescence on an Envision. For potency a solution of Steady Glo (Promega, #E2550) was prepared according to the manufacturer's instructions and 100 μL added to each well. After a twenty minute incubation the plate was then read for luminescence on an Envision.
(§4) Potency: The luminescence values from all compound-free wells containing cells were averaged to obtain a positive control value. The mean luminescence value from the compound-free wells that had received no cells was used to provide the negative (background) control value. The readings from the wells at each compound concentration were taken and after the subtraction of the mean background from all values, were expressed as a percentage of the positive control signal. The quantifiable and specific reduction of luciferase signal in the presence of a drug is a direct measure of replicon inhibition. BioAssay Enterprise (CamebridgeSoft) with the XC50 module for curve fitting was used to plot the curve of percentage inhibition against compound concentration and derive the 50% inhibitory concentration (EC50) for the compound. EC50 is the effective concentration, that is, the concentration of compound where 50% maximal effect is observed. The EC50 values of two identical plates were averaged. The results are presented in Table 1 as EC50 for genotypes (GT) 1a, 1b, 1b 316N and 1a 316Y.

The test system of data set [2] is sub-genomic HCV NS3-NS5B replicon genotype 1b (Huh-7 cells). Nature of the data set: Replicon luciferase cell based assay, genotype 1b. The note with it: Hepatitis C virus; Huh-7 genotype 1b luciferase replicon, 48 hours; read-out: EC50 GT1b. The method, then:
as §1, §2, §3, §4

For data set [3], the system named is sub-genomic HCV NS3-NS5B replicon genotype 1a (Huh-7 cells). Nature of the data set: Replicon luciferase cell based assay, genotype 1a. The note with it: Huh-7 genotype 1a luciferase replicon, 48 hours, read-out: EC50 GT 1a. The method, then: as §1, §2, §3, §4
For data set [4], the system named is sub-genomic HCV NS3-NS5B replicon genotype 1a C316Y (Huh-7 cells). Nature of the data set: Replicon luciferase cell based assay, genotype 1a C316Y. The note with it: Hepatitis C virus, Huh-7, 48 h, read-out: EC50 1a 316Y. The method, then:
as §1, §2, §3, §4
(In general: Replicon systems follow genome replication, usually without infectious particles.)

Data set [5] is described as follows: In vivo pharmacokinetic study, rat. The method, then:
In vivo pharmacokinetic studies were conducted in mouse, rat, dog, or cynomolgus monkey to determine clearance, oral exposure and bioavailability (% F). Solution doses of the compounds were administered intravenously through catheters or orally by gavage. Blood samples were collected at the following time points (n=2 or 3/route/species): 0.083 (IV only), 0.167 (IV only), 0.25, 0.5, 1, 2, 4, 6, 8, 12, and 24 h. Non-compartmental pharmacokinetic parameters were determined using Phoenix Winnonlin 6.1 (Pharsight, Mountain View, Calif.). Bioavailability of the oral formulation of each compound were calculated as the ratio of the oral dose normalized AUCinf to the intravenous dose normalized AUCinf. Results are expressed in Table 2.

Where two headings read alike, the source gives them in different places.

A word on the EC50: it is the concentration giving half of the maximal effect. On to `CNC(=O)c1c(-c2ccc(F)cc2)oc2cc(N(c3ccc(C4CCB(O)O4)c(Cl)c3)S(C)(=O)=O)c(C3CC3)cc12` (single isomer, unassigned; enantiomer 1) [Example 28, 6-(N-(3-Chloro-4-(2-hydroxy-1,2-oxaborolan-5-yl)phenyl)methylsulfonamido)-5-cyclopropyl-2-(4-fluorophenyl)-N-methylbenzofuran-3-carboxamide, enantiomer 1], for which the EC50 in data set [1] (Hepatitis C virus, Huh-7, 48 h) lay in the range of 11 to 200 nM; in data set [2], 1 to 10 nM; in data set [3] (Hepatitis C virus) it was 1 to 10 nM; in data set [4], 11 to 200 nM.

As for `CNC(=O)c1c(-c2ccc(F)cc2)oc2cc(N(c3ccc(C4CCB(O)O4)c(Cl)c3)S(C)(=O)=O)c(C3CC3)cc12` (single isomer, unassigned; enantiomer 2) [Example 29, 6-(N-(3-Chloro-4-(2-hydroxy-1,2-oxaborolan-5-yl)phenyl)methylsulfonamido)-5-cyclopropyl-2-(4-fluorophenyl)-N-methylbenzofuran-3-carboxamide, enantiomer 2], the EC50 in data set [1] (Huh-7 genotype 1b C316N luciferase replicon, 48 hours) is 11 to 200 nM; in data set [3], 1 to 10 nM.

Broadly, the clearance is the volume of plasma or blood freed of the substance per unit of time. Usually bioavailability stands for dose-corrected exposure relative to a reference, in per cent. On to `CNC(=O)c1c(-c2ccc(Cl)cc2)oc2cc(N(Cc3ccc(B(O)O)c(F)c3)S(C)(=O)=O)c(C3CC3)cc12` [C], for which, in data set [5] (Rat), the DNAUC came to 434 ng·h/mL/mg/kg and the “T 1/2” value was 1.8 H. The compound also yielded a clearance in data set [5] (rat, blood, intravenous) of 15.6 mL/min/kg. For the same compound, in data set [5] (rat, blood, intravenous, read-out: Vss), the Vd turned out to be 1.1 L/kg. The same compound returned a bioavailability in data set [5] (rat, blood, oral) of 40%.

As for `CNC(=O)c1c(-c2ccc(Cl)cc2)oc2cc(N(c3ccc(B(O)O)c(Cl)c3)S(C)(=O)=O)c(C3CC3)cc12` [Example 2, (2-Chloro-4-(N-(2-(4-chlorophenyl)-5-cyclopropyl-3-(methylcarbamoyl)benzofuran-6-yl)methylsulfonamido)phenyl)boronic acid], the EC50 in data set [1] (Hepatitis C virus, Huh-7, 48 h) was in the range of 1 to 10 nM; in data set [2], 1 to 10 nM; in data set [3] (Hepatitis C virus) it was 1 to 10 nM; in data set [4], 1 to 10 nM.

With `CNC(=O)c1c(-c2ccc(F)cc2)oc2cc(N(c3ccc(B(O)O)cc3)S(C)(=O)=O)c(C3CC3)cc12` [Example 3, 4-(N-(5-cyclopropyl-2-(4-fluorophenyl)-3-(methylcarbamoyl)benzofuran-6-yl)methylsulfonamido)phenylboronic acid], the EC50 in data set [1] (Hepatitis C virus, Huh-7, 48 h) lay in the range of 1 to 10 nM; in data set [2], 1 to 10 nM; in data set [3] (Hepatitis C virus) it was 1 to 10 nM; in data set [4], 200 to 1000 nM.

Consider `CNC(=O)c1c(-c2ccc(F)cc2)oc2cc(N(c3cccc(B(O)O)c3)S(C)(=O)=O)c(C3CC3)cc12` [Example 4, 3-(N-(5-cyclopropyl-2-(4-fluorophenyl)-3-(methylcarbamoyl)benzofuran-6-yl)methylsulfonamido)phenylboronic acid], for which the EC50 in data set [1] (Hepatitis C virus, Huh-7, 48 h) is 11 to 200 nM; in data set [2], 1 to 10 nM; in data set [3] (Hepatitis C virus) it was 1 to 10 nM; in data set [4] it was greater than 1000 nM.

As to `CNC(=O)c1c(-c2ccc(F)cc2)oc2cc(N(c3ccc(B(O)O)c(F)c3)S(C)(=O)=O)c(C3CC3)cc12` [Example 5, 4-(N-(5-cyclopropyl-2-(4-fluorophenyl)-3-(methylcarbamoyl)benzofuran-6-yl)methylsulfonamido)-2-fluorophenylboronic acid], the EC50 in data set [1] (Hepatitis C virus, Huh-7, 48 h) was 1 to 10 nM; in data set [2] it was 1 to 10 nM; in data set [3] (Hepatitis C virus), 1 to 10 nM; in data set [4] it was 11 to 200 nM.

Regarding `CNC(=O)c1c(-c2ccc(F)cc2)oc2cc(N(c3ccc(B(O)O)cc3F)S(C)(=O)=O)c(C3CC3)cc12` [Example 6, 4-(N-(5-cyclopropyl-2-(4-fluorophenyl)-3-(methylcarbamoyl)benzofuran-6-yl)methylsulfonamido)-3-fluorophenylboronic acid], the EC50 in data set [1] (Hepatitis C virus, Huh-7, 48 h) is 11 to 200 nM; in data set [2], 1 to 10 nM; in data set [3] (Hepatitis C virus) it was 1 to 10 nM; in data set [4], greater than 1000 nM.

Regarding `CNC(=O)c1c(-c2ccc(Cl)cc2)oc2cc(N(c3ccc(B(O)O)c(F)c3)S(C)(=O)=O)c(C3CC3)cc12` [Example 7, 4-(N-(2-(4-chlorophenyl)-5-cyclopropyl-3-(methylcarbamoyl)benzofuran-6-yl)methylsulfonamido)-2-fluorophenylboronic acid], the EC50 in data set [1] (Hepatitis C virus, Huh-7, 48 h) was 1 to 10 nM; in data set [2] it was 1 to 10 nM; in data set [3] (Hepatitis C virus), 1 to 10 nM; in data set [4] it was 11 to 200 nM.

For `CNC(=O)c1c(-c2ccc(F)cc2)oc2cc(N(c3ccc(B(O)O)cn3)S(C)(=O)=O)c(C3CC3)cc12` [Example 8, 6-(N-(5-cyclopropyl-2-(4-fluorophenyl)-3-(methylcarbamoyl)benzofuran-6-yl)methylsulfonamido)pyridin-3-ylboronic acid], the EC50 in data set [1] (Hepatitis C virus, Huh-7, 48 h) is greater than 1000 nM; in data set [2], greater than 1000 nM; in data set [3] (Hepatitis C virus) it was greater than 1000 nM.

As for `CNC(=O)c1c(-c2ccc(F)cc2)oc2cc(N(c3ccc(B(O)O)c(C(F)F)c3)S(C)(=O)=O)c(C3CC3)cc12` [Example 9, (4-(N-(5-cyclopropyl-2-(4-fluorophenyl)-3-(methylcarbamoyl)benzofuran-6-yl)methylsulfonamido)-2-(difluoromethyl)phenyl)boronic acid], the EC50 fell in the range of 1 to 10 nM in data set [1] (Hepatitis C virus, Huh-7, 48 h); 1 to 10 nM in data set [2]; 1 to 10 nM in data set [3] (Hepatitis C virus); 11 to 200 nM in data set [4].

Turning to `CS(=O)(=O)N(c1ccc(B(O)O)c(Cl)c1)c1cc2oc(-c3ccc(Cl)cc3)c(C(=O)O)c2cc1C1CC1` [Example 13, 6-(N-(4-borono-3-chlorophenyl)methylsulfonamido)-2-(4-chlorophenyl)-5-cyclopropylbenzofuran-3-carboxylic acid], the EC50 is greater than 1000 nM in data set [1] (Hepatitis C virus, Huh-7, 48 h); greater than 1000 nM in data set [2]; greater than 1000 nM in data set [3] (Hepatitis C virus).

Consider `CNC(=O)c1c(-c2ccc(F)cc2)oc2cc(N(c3ccc(OCB(O)O)cc3)S(C)(=O)=O)c(C3CC3)cc12` [Example 18, ((4-(N-(5-Cyclopropyl-2-(4-fluorophenyl)-3-(methylcarbamoyl)benzofuran-6-yl)methylsulfonamido)phenoxy)methyl)boronic acid], for which the EC50 in data set [1] (Hepatitis C virus, Huh-7, 48 h) was 11 to 200 nM; in data set [2], 1 to 10 nM; in data set [4] it was 11 to 200 nM.

`CNC(=O)c1c(-c2ccc(F)cc2)oc2cc(N(c3ccc4c(c3)CCOB4O)S(C)(=O)=O)c(C3CC3)cc12` [Example 30]: the 50% effective concentration (EC50) was 1 to 10 nM in data set [1] (Hepatitis C virus, Huh-7, 48 h); 1 to 10 nM in data set [2]; 1 to 10 nM in data set [3] (Hepatitis C virus).

Values taken from US9682999B2, “Benzofuran compounds for the treatment of hepatitis C virus infections” (Glaxo Group Limited, priority 2011, dated 2017).
